Data as given in PMC5663395, “Chemical Validation of Methionyl-tRNA Synthetase as a Druggable Target in Leishmania donovani” (ACS Infectious Diseases, 2017).
Like-named read-outs stand apart in the source and are kept apart here.

What was measured:
[1] = LogD measurement (Sirius T3, potentiometric); format: physicochemical; details: octanol/water
Description: calculated, both in terms of pEC50 values. MIC (minimum inhibitory concentration) values are defined as the lowest concentration tested at which maximal inhibition is reached.
THP-1 cells were differentiated in 96-well plates with PMA as described above. Following differentiation the cells were treated for 30 min with dose-response curves of test compounds in presence of 100 nM LysoTracker Red DND-99 (Thermo Fisher) and 5 µg/ml Hoechst 33342. Next cells were washed 3 times with Hanks Buffered Saline Solution (Gibco) and imaged on a Perkin Elmer Operetta system. An image analysis algorithm to measure mean Lysotracker Red DND-99 intensity per cell was developed in Columbus. […]
To measure the pKa of DDD806905, a fast UV-metric method was performed using a Sirius T3 instrument (Sirius Analytical, U.K.). The calculation of the pKa was determined using the Sirius T3 refine software (Sirius Analytical, U.K.). In brief, the UV-metric pKa method is based on measuring pH during an acid-base titration and monitoring UV absorbance shift. […] The appearance of precipitate was monitored throughout the experiment by a turbidity sensing device. […] The pKas of DDD806905 was determined at the pH where there was maximal change in UV absorbance with respect to pH. […]
LogD7.4 values were quantified using a Sirius T3 instrument (Sirius Analytical, U.K.). […]
which gave the best fit to the data was then recorded as the logP. […]

[2] = system: L. donovani intracellular amastigote; experiment: Leishmania intracellular amastigote assay; format: cell-based
Description: (§1) carried out as described above using 5%, 10% and 20% FBS in the media. To examine the effect of the methionine concentration on the potency of DDD806905 parasites were grown in the presence of drug and in the presence (or absence) of 20-fold excess methionine (0.3 g/l). IC50 curve fitting was undertaken in GraFit version 6.0 (Erithacus Software) using a four-parameter logistic dose-response curve (equation 6), with s the slope.
(§2) Leishmania Axenic Amastigote Assay
(§3) The Leishmania axenic amastigote assay was performed using the method published in Nühs et al 15.
(§4) Leishmania Intracellular Amastigote Assay
(§5) The intramacrophage Leishmania assay was performed using a modified version of the method described in De Rycker et al 16. […]
(§6) amphotericin B was included. Controls were as follows: columns 11 and 12: DMSO, columns 23 and 24: amphotericin B (final concentration 2 µM). 350 nl of compound was pre-dispensed into 384-well sterile intermediary plates. To the intermediary plates, 35 µl of THP-1 media was added and plates were shaken for >5 min to ensure complete mixing. THP-1 cells (8,000 per well, 50 µl) were plated into black clear-bottom 384-well plates (Corning) in presence of 20 nM phorbol 12-myristate 13- […]
in a humidified incubator for 75 h. The cells were then washed with 450 µl sterile phosphate buffered saline (PBS) supplemented with 1 mM CaCl2, 0.5 mM MgCl2, 0.1% (w/v) bovine serum albumin (PBS-A) and amastigotes were added to all wells at a multiplicity of infection of 5 (40,000 amastigotes per well). After 40 min at room temperature, plates were returned to the incubator.
Amastigotes were incubated in the presence of THP-1 macrophages for 16 h. Any remaining extracellular amastigotes were subsequently removed by washing with PBS-A followed by addition of 25 µl of the compound pre-dilutions using an Ipette-pro pipetting station (FluidX). The final dilution of each compound was 200-fold. […] For each well, i) THP-1 cell count (cytotoxicity readout) and ii) average number of amastigotes per cell (potency readout) were […]
calculated, both in terms of pEC50 values. […]

[3] = THP-1 cytotoxicity readout of intramacrophage assay; format: cell-based; details: human, Leishmania infected, PMA-differentiated THP-1 cells; read-out: THP-1 EC50 (toxicity)
Description: as §1, §2, §3, §4, §5
as §6, with “mixing.” for “mixing. THP-1 cells (8,000 per well, 50 µl) were plated into black clear-bottom 384-well plates (Corning) in presence of 20 nM phorbol 12-myristate 13-”
Amastigotes were incubated in the presence of THP-1 macrophages for 16 h. […] For each well, i) THP-1 cell count (cytotoxicity readout) and ii) average number of amastigotes per cell (potency readout) were […]

Cl.Cl.O=c1nc(NCCCNCc2cc3c(Cl)cc(Cl)cc3[nH]2)[nH]c2ccccc12 [DDD806905, 2-((3-(((4,6-dichloro-1H-indol-2-yl)methyl)amino)propyl)amino)quinazolin-4(1H)-one dihydrochloride]
logD ([1]; pH 5.6, read-out: log D5.6): 0.3
logD ([1]; pH 7.3, read-out: log D7.3): 2.6
EC50 ([2]; in THP-1 macrophages, read-out: intracellular amastigote EC50): 2900 nM
MIC ([2]; intracellular assay, lowest concentration with maximal inhibition, read-out: MIC (minimum inhibitory concentration)): 4.3 µM
EC50 ([2]; representative curve, n=8 technical replicates, read-out: intracellular amastigote EC50, representative potency determination): 2800 nM
EC50 at 96 h [3]: 10000 nM
